The values below come from patent publication US7592000B2, “Method of tanning human body by mysting or immersion at elevated temperature” (Merck Patent GmbH, priority 2004, dated 2009).

Data set [1] is described as follows: monomer/dimer equilibrium of DHA dissolved in water. Particulars: DHA solutions at 30-50° C. versus 20° C. Type of data set: physicochemical. An excerpt:
It is assumed that the effect, advantageous according to the invention, of the improved tanning effect at elevated temperatures in the case of 1,3-dihydroxyacetone is connected with the following mechanism. As a raw material, DHA is in the form of a powder and consists of dimers. Dissolved in water, some of the dimers convert to the active monomeric form, which brings about the tanning reaction. At an elevated water temperature, the amount of monomers increases. […] At the same time, the elevated temperature increases the reaction rate of the tanning reaction. […] It is therefore preferred according to the invention when the solution of the self-tanning substance is tempered for about 15 min, but at least about 10 min, before the solution is applied to the human skin.

The conditions of data set [2]: over the entire pH range; cited from earlier work.

On to `O=C(CO)CO` [DHA, 1,3-dihydroxyacetone], for which the “more active DHA monomers present than in DHA solutions at 20° C.” value in data set [1] was “up to 30%”.
For `O=c1c(O)c(-c2ccc(O)c(O)c2)oc2cc(O)cc(O)c12` [quercetin, 3,3′,4′,5,7-pentahydroxyflavone], the “antioxidative activity relative to the investigated structures” value in data set [2] is on record as “highest activity of the investigated structures”.
